Experiment [1] concerns the target T1, oxidized PTP1B-mut2 (L37F/K39E/K41R) (Homo sapiens, UniProt P18031, K39E/K41R/L37F).
T1 construct: PTP1B (1–321) and TCPTP (1–317) cloned in pET21b vector were used as templates; 6xHis (C); made in house; host or cells: E. coli BL21 (DE3)-RIL
T1 sequence (P18031 1-321 L37F/K39E/K41R): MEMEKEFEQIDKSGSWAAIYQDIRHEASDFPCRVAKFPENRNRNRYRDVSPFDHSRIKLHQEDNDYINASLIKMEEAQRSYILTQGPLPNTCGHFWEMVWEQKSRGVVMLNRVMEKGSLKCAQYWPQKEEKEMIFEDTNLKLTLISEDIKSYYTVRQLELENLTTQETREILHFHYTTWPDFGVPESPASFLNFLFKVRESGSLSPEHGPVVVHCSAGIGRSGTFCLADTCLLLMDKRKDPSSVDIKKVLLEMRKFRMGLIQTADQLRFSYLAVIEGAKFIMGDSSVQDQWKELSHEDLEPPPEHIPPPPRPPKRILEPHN
Kind of experiment: reduction and reactivation of oxidized PTP1B-mut2, DiFMUP, TCEP. Type of experiment: biochemical. As to conditions: TCEP 5 mM. As to the method:
Fig. 1 Molecular characterization of PTP1B-scFv45 interaction. a Overlay of PTP1B (gray) and TCPTP (pale blue) crystal structures, highlighting residues that are changed in generating mutant forms (-mut1 and -mut2) of the enzymes. b Increasing concentrations of recombinant HA-tagged scFv45 were incubated with oxidized wild-type (-wt) or mutant (-mut) forms of PTP1B (top panel) and oxidized wild-type or mutant forms of TCPTP (bottom panel). The protein complexes were precipitated with anti-HA-agarose beads and equivalent amounts of input, supernatant, and eluate were subjected to immunoblot analysis. Data are representative of at least three independent experiments (n = 3). c Michaelis–Menten plots for wild-type (circle), -mut1 (square), or -mut2 (triangle) forms of PTP1B (left) and TCPTP (right) are shown. […] Individual data points represent the mean obtained from three separate experiments (n = 3). d Wild-type and mutant forms of PTP1B were incubated with increasing concentrations of H2O2 and phosphatase activity was measured using DiFMUP in the absence (black bar) and presence (gray bar) of the reducing agent TCEP (5 mM). e Oxidized PTP1B-wt (circle), PTP1B-mut1 (square), or PTP1B-mut2 (triangle) were incubated with increasing concentration of scFv45 (0–1000 nM) and phosphatase activity was measured using DiFMUP as substrate in the presence of the reducing agent TCEP (5 mM). […]

Experiment [2] relates to insulin signaling in 293T cells. The experiment can be described thus: insulin signaling in 293T cells (immunoblot). Type of experiment: cell-based. As to conditions: for insulin-induced activation of AKT (pThr308) / insulin-induced phosphorylation of insulin receptor β-subunit (IR-β): 293T cells, compound 2 μM 1 h, insulin 25 nM. The procedure: To study the effect of chelerythrine and protopine on insulin signaling we used 293T cells (ATCC) and cultured in DMEM containing 10% FBS. For insulin signaling, cells were serum starved for 16 h and then treated with chelerythrine (2 µM) or protopine (2 µM) for 1 h. Following which, cells were treated with 25 nM insulin for various times (0, 5, 10, 20 min) at 37 °C. Cells were washed with PBS and lysed in de-gassed RIPA lysis buffer (25 mM HEPES pH 7.5, 150 mM NaCl, 0.25% Deoxychloate, 10% Glycerol, 25 mM NaF, 10 mM MgCl2, 1 mM EDTA, 1% Triton X-100, 0.5 mM PMSF, 10 mM Benzamidine, cOmplete protease inhibitor cocktail (Roche)). Soluble proteins were harvested by centrifugation at 13,000×g for 10 min at 4 °C and quantitated. Total proteins in the cell lysates were separated by SDS-PAGE and tyrosyl phosphorylation of the IR-β subunit and downstream AKT activation was monitored. To test the effect of suppressing H2O2 levels on the function of the compounds, catalase was ectopically expressed in cells for 24 h. Following which, the cells were treated with the compounds as mentioned above. […] Catalase expression was detected in the cell samples with a rabbit polyclonal antibody (Abcam, ab52477).
Mammalian expression plasmids used in this study were as follows: pCMV-FLAG and pCMV-FLAG-PTP1B (wt and -mut2). Empty vector, FLAG-PTP1B-wt, or FLAG-PTP1B-mut2 were transfected into 293T cells for 24 h, following which, cells were serum starved for 8 h and then treated with chelerythrine (2 µM) for 1 h. Subsequently, cells were treated with 10 nM insulin for various times (0, 10, 20 min) at 37 °C. Cells were washed with PBS and lysed in de-gassed RIPA lysis buffer (25 mM HEPES pH 7.5, 150 mM NaCl, 0.25% Deoxycholate, 10% Glycerol, 25 mM NaF, 10 mM MgCl2, 1 mM EDTA, 1% Triton X-100, 0.5 mM PMSF, 10 mM Benzamidine, cOmplete protease inhibitor cocktail (Roche)). Soluble proteins were harvested by centrifugation at 13,000×g for 10 min at 4 °C and quantitated. Total proteins in the cell lysates were separated by SDS-PAGE and tyrosyl phosphorylation of the IR-β subunit was analyzed by immunoblotting.
On the technique in general: Immunoblotting shows a protein as a band on a membrane.

The subject of experiment [3] is leptin signaling in hepatic stellate cells. The experiment can be described thus: leptin signaling in hepatic stellate cells (immunoblot). The experiment is classed as cell-based, human. As to conditions: for effect on JAK2 phosphorylation in presence of apocynin: NOX inhibitor apocynin; for leptin-induced tyrosine phosphorylation of JAK2: chelerythrine 0–5 μM or ectopic scFv45. The procedure:
Human hepatic stellate cells (HSteCs; ScienCell research laboratories, CA) were cultured according to manufacturer’s instructions. Cells were seeded on poly-L-lysine coated dishes and maintained in Stellate Cell Medium (SteCM, Cat. #5301). When cells reached 70% confluency they were split for various experiments. To study leptin signaling, HSCs were incubated in serum-free DMEM for 24 h and then stimulated with varying concentration of leptin (0, 10, 25, 50, 100, and 200 ng ml^−1) for 15 min. To study the effect of chelerythrine and protopine, serum starved cells were incubated with the compounds at varying concentrations (0–5 µM) for 1 h prior to leptin stimulation. In some groups, cells were pre-incubated (60 min) with the NADPH oxidase inhibitor apocynin (100 nM), before stimulation with leptin.

Data on three molecules can be found in paper PMC5773487, “Harnessing insulin- and leptin-induced oxidation of PTP1B for therapeutic development” (Nature Communications, 2018).

Entries after “also recorded” stand apart in the source; their conditions may differ.

On to `COc1ccc2c(c[n+](C)c3c4cc5c(cc4ccc23)OCO5)c1OC` [chelerythrine], for which the “inhibition of reduction and reactivation of oxidized PTP1B-mut2” value in experiment [1] is listed as “unable to inhibit; also recorded: insensitive”. Besides, in experiment [2], the “basal signaling in the absence of insulin or leptin” value is recorded as “no impact”; the “insulin-induced activation of AKT (pThr308)” value was “enhanced”; the “insulin-induced phosphorylation of insulin receptor β-subunit (IR-β)” value is “enhanced and sustained phosphorylation”. In addition, the “stimulatory effect on IR-β phosphorylation and AKT activation upon catalase overexpression” value in experiment [2] (293T cells expressing catalase, 2 μM) is “ablated”. Moreover, in experiment [2] (293T, 2 μM, insulin 10 nM), the “insulin signaling in cells expressing PTP1B-mut2” value is on record as “insensitive”; the “insulin signaling in control and PTP1B-wt expressing cells” value is “elevated insulin signaling”. The observed cellular efficacy in experiment [2] (reviewer's remark in peer review file) was below 2 µM. In addition, in experiment [3], the “effect on JAK2 phosphorylation in presence of apocynin” value is on record as “attenuated” and the “leptin-induced tyrosine phosphorylation of JAK2” value is recorded as “dose-dependent increase”.
Turning to `CN1CCc2cc3c(cc2C(=O)Cc2ccc4c(c2C1)OCO4)OCO3` [protopine], in experiment [2], the “insulin-induced activation of AKT (pThr308)” value was “no significant effect” and the “insulin-induced phosphorylation of insulin receptor β-subunit (IR-β)” value is “no significant effect”.

B1: scFv45: recombinant conformation-sensor single-chain variable fragment antibody recognizing oxidized PTP1B (antibody, V domains shown)
VH: TVTLDESGGGLQAPGGALSLVCKASGFTFSSYDMGWIRQAPGKGLEYVAGITDNGRYASYGSAVDGRATISRDNGQSSVRLQLNNLRAEDTGTYYCARDDGSGWTGNSIDAWGHGTEVIVSE
VL: ALTQPSSVSANPGGTVKITCSGSSSAYGYGWYQQKSPGSAPVTVIYNNNKRPSNIPSRFSGSKSGSTGTLTITGVQAEDEAVYFCGSEDSSTDAIFGAGTTLTVL
As for B1, the “inhibition of reduction and reactivation of oxidized PTP1B-mut2” value in experiment [1] is “did not attenuate”. Moreover, in experiment [3], the “effect on JAK2 phosphorylation in presence of apocynin” value is given as “abrogated” and the “leptin-induced tyrosine phosphorylation of JAK2” value was “enhanced phosphorylation of JAK2”.
